Data as given in the OligoGym collection.
These antisense oligonucleotides have a phosphorothioate backbone; sugars and methylation of C are not fully specified.

Molecular target: CHEK2
Details: ASO
Further: test concentration or dose not given here.

Row | Sequence | remaining target (mRNA or protein) (fraction of control)
1 | TCAGCAGTGGTTCATCAAAG | 0.63
2 | CTCTCGAAAGCCAGCTTTAC | 0.31
3 | AACATCCGACTCCCGAGACA | 0.65
4 | GAGAGCTGGGTCTGCCTCTC | 0.73
5 | GTACTGCACAGCCAAGAGCA | 0.79
6 | CCACGGAGTTCACAACACAG | 0.74
7 | CGTGCTGGTAGAGGAGCTGG | 0.77
8 | AAGGCTTCTTCTGTCGTAAA | 0.96
9 | GACTTCAGGAATGAAGTTGT | ≥ 1
10 | TGAGATGACAGTAAAACATT | ≥ 1
11 | CAGAGTGAAAGAAGGACATT | ≥ 1
12 | AAACTTTCTCTTCATGTCTT | ≥ 1
13 | GACGGCGTTTTCCTTTCCCT | 0.49
14 | AAGGGCCCATAATCGAGCCC | 0.78
15 | ATTTCTGCTTAGTGACAGTG | 0.65
16 | TCCACAGCACGGTTATACCC | 0.28
17 | CATGAGAGAGGTCTCTCCCA | 0.85
18 | CTTGGGACTGGGTAACGCTG | 0.93
19 | AATCCGAAAGTGTTTCTTGC | ≥ 1
20 | TGTTCAAACCACGGAGTTCA | 0.62
21 | GAAGCCACGGGTGTCTTAAG | 0.86
22 | AGGAATAGAATAGAGTTCCT | ≥ 1
23 | TTTATTCCCCACCACTTTGT | 0.38
24 | TAATCTTTATAAGACAGTCC | 0.88

Molecular target: IKBKB
Details: ASO

Row | Sequence | remaining target (mRNA or protein) (fraction of control)
25 | TTCAAGATATGAACCAGC | 0.54
26 | TGAGTCTCATAGGTGATT | ≥ 1
27 | CCCCACATGTCTGCGTTG | 0.12
28 | CTGGGATGCCCGTGTCCT | ≥ 1
29 | ATCCTAGGTCAATAATTT | 0.97
30 | TGTATTAACCTCTGTTCT | ≥ 1
31 | GCTCAGGTAAGCTGTTGG | 0.45
32 | CTCGAAGCTCTGAATTGC | 0.48
33 | TGATGGCAATCTGCTCAC | ≥ 1
34 | CAGCTGTGCTCTTCTTCT | 0.75
35 | CTGTCCCAAGGCGCTCTT | 0.42
36 | TGTAAGTCCACAATGTCG | 0.61
37 | AGTTTATCTGATGTGATC | 0.8
38 | CTCAGCTGGAAGAAGGCG | 0.4
39 | GGGCTCTTGAAGGATACA | 0.39
40 | TCCTGTACAGCTCCCTTG | 0.13
41 | GTCAGCCTTCTCATGATC | ≥ 1

Row | Sequence | remaining target (mRNA or protein) (fraction of control)
42 | GTTCCATTCAAGTCTTCG | 0.78
43 | GACAACAGTCTTCTCATC | 0.77
44 | TTGGCCTTGAGCTGCTGA | 0.31
45 | TTAACTTGCCGTCTGAAA | 0.8
46 | GGGAAGGTGACCAGCTCA | 0.3
47 | AGGGTGCAGAGGTTATGT | 0.48
48 | GGGCTTCCACTGACAGGA | 0.18
49 | ACTCAAAGGCCAGGGTGC | 0.59
50 | TGCACGGGCTGCCAGTTG | 0.46
51 | CACAGGGTAGGTGTGGAT | 0.6
52 | CGTGAAACTCTGGTCTTG | 0.48
53 | GGAGAGGCAGCTGTTGTT | 0.43
54 | AATGTCACTCAGCAAGGT | 0.25
55 | ACTTCTGCTGCTCCAGTA | 0.58
56 | ACTGGTTCAGGTACTTCC | 0.88
57 | CTGAGTGGCAGGCTTATC | 0.28
58 | TTAAGATGTCATCCAGGG | ≥ 1

Molecular target: PRKAR2A
Details: ASO

Row | Sequence | remaining target (mRNA or protein) (fraction of control)
59 | GTGGCTCATGCCGGCGGCGG | ≥ 1
60 | ATCTGGATGTGGCTCATGCC | 0.82
61 | TGAGTGATTATGCGTTCTCC | 0.8
62 | TAATGAATGGGCCTTCAGAA | ≥ 1
63 | CCCGAGGTTGCCCAGATCCA | ≥ 1
64 | TGCAGCAGCTCCGTGAGCCC | 0.57
65 | CTGGATGTGGCTCATGCCGG | 0.52
66 | CATGCCGGCGGCGGCCGAAG | ≥ 1
67 | GCTGTTCCTCATAGTGTGAG | ≥ 1
68 | CAATGACATGCTCATCAGCT | 0.74
69 | GCGGCCACTGTCTCCGCGCT | 0.67
70 | TTCTAAAAGTCACCCGGTCC | 0.39
71 | GCATGTTTATACTTTGGACT | 0.83
72 | GCGCAACCCTACGCTACCAC | 0.53
73 | TACTAAAATGTCATAAGTTC | ≥ 1
74 | GGATCTGGATGTGGCTCATG | 0.71
75 | GGGTGTTGTACATCAGAGCT | 0.87
76 | CTGACACCTCTAGTGATTTA | ≥ 1
77 | CCATGCAGGGCCCCAGAAGC | 0.52
78 | GGATGTGGCTCATGCCGGCG | 0.94

Row | Sequence | remaining target (mRNA or protein) (fraction of control)
79 | TGCCGGCGGCGGCCGAAGGG | ≥ 1
80 | CGCACGGCCCCGGCTCACGT | 0.68
81 | CACACCTACTGCCCGAGGTT | 0.38
82 | TTGAACCTCTGCCCATCCTT | 0.39
83 | CTCATGCCGGCGGCGGCCGA | 0.96
84 | GCAGCGGGCAATCTCGACCT | 0.5
85 | ATAACTAAGCATTTGACATC | 0.94
86 | AGGCGGGTGAAGTACTCCAC | 0.46
87 | AATGCCCATAACCACAGCAA | 0.39
88 | CTAGGAACTGGAACTTCCAA | 0.91
89 | ATCTGTATCTTCCTCTTCCT | 0.73
90 | CAGGAACAGTTCTGTCATGT | 0.65
91 | TGTGGCTGACCAGAAGGTTT | 0.53
92 | CGGGATCTGGATGTGGCTCA | 0.81
93 | AAGGAGAATATCTTTGCAAG | ≥ 1
94 | TTTGTTGGTGACCAGGGCAA | 0.6
95 | TTTAGTCCTGCTTCTAATCA | 0.73
96 | GAGAGACATGCCGTTTTGAA | 0.51
97 | GGCTCATGCCGGCGGCGGCC | 0.62
98 | ATGTGGCTCATGCCGGCGGC | 0.95

Molecular target: RHOG
Details: ASO

Row | Sequence | remaining target (mRNA or protein) (fraction of control)
99 | CCCTGCTGCGGTGTGATG | 0.56
100 | GTCAGTAGCGGAAAATGG | ≥ 1
101 | ACCACAATAGGCAGCAAC | 0.69
102 | AGCTGGATGAACTGGTCA | 0.77
103 | CAATTCCAAGAGCAGCGA | 0.82
104 | CATTCGAGGTAGCGCACA | 0.61
105 | GTCAGCAAATGCGTAAGG | 0.76
106 | GGGTCCAACCTTGGCTTG | 0.42
107 | CCACCACGCACTTGATGC | 0.86
108 | GAGGGCAGAGGTTAGAGA | 0.79
109 | AAGAGGATGCAGGACCGC | 0.82
110 | AGGGCAGTGGTGGCACAC | 0.85
111 | ACATTCACCTTCTCAGGA | 0.8
112 | GCATCGTGGGTGCAGTTG | 0.53
113 | AACTGTGTGGAAAGCTGG | 0.92
114 | ACGTTGGTCTGAGGGTAG | 0.62
115 | GTGCAGTTGCTGTAGTGA | 0.9
116 | GTCCCACAGGTTCAGGTT | 0.69
117 | GGCAGTGCCTCCTCTCTC | 0.65
118 | GCAGCCTCCAAGCCAAGT | 0.58

Row | Sequence | remaining target (mRNA or protein) (fraction of control)
119 | GACCTGGTGCCCCTCCCG | 0.65
120 | GGGTGTCAGGCTGGGCTC | 0.85
121 | TGGAGAAGGGAGAGAGCA | 0.68
122 | GCGCGCTGTAATTGTCGA | 0.64
123 | CGCGAGTGCCTGGCCCTG | 0.91
124 | CAGCAGGATGGGCACATC | 0.8
125 | GGTTCACTGTGCGCCCGT | 0.84
126 | CAATGGAGAAACAGATGA | ≥ 1
127 | TTGTGTAGCAGATGAGCA | 0.65
128 | CATAGGACGGCGGACTGG | 0.83
129 | CGCACGTTCTCATAGGAC | 0.76
130 | GAACACTTCCTTGACACC | 0.69
131 | AAAAGGCATTCAGGGAAC | ≥ 1
132 | ACCTCTGGATGCCACTTG | 0.65
133 | ACACCATCCTGTTGCAGG | 0.77
134 | ACAGCCTCGGCGAACACT | 0.94
135 | AAAGCGTTAGTTGTGTAG | ≥ 1
136 | GTAGCGCACAGCGTGGAT | 0.65
137 | TCTTCTGGACCCCTCTGG | 0.64
138 | TGTACGGAGGCGGTCATA | 0.63
